Columns and labels:
Mus musculus [1] = test: Toxicity in ig dosed Mus musculus (mouse) assessed as effect on kidney after 7 days; format: organism-based; conditions: in vivo, po, 168 h
Mus musculus [2] = test: Toxicity in ig dosed Mus musculus (mouse) assessed as effect on liver after 7 days; format: organism-based; conditions: in vivo, po, 168 h
Mus musculus [3] = test: Toxicity in ig dosed Mus musculus (mouse) assessed as effect on spleen after 7 days; format: organism-based; conditions: in vivo, po, 168 h
Mus musculus [4] = test: Toxicity in ig dosed Mus musculus (mouse) assessed as effect on heart after 7 days; format: organism-based; conditions: in vivo, po, 168 h
Mus musculus [5] = test: Toxicity in ig dosed Mus musculus (mouse) assessed as effect on spleen measured post autopsy; format: organism-based; conditions: in vivo, po
Mus musculus [6] = test: Toxicity in ig dosed Mus musculus (mouse) assessed as effect on kidney measured post autopsy; format: organism-based; conditions: in vivo, po
Mus musculus [7] = test: Toxicity in ig dosed Mus musculus (mouse) assessed as effect on liver measured post autopsy; format: organism-based; conditions: in vivo, po
Mus musculus [8] = test: Toxicity in ig dosed Mus musculus (mouse) assessed as mortality within 24 hr; format: organism-based; conditions: in vivo, po
Mus musculus [9] = test: Toxicity in ig dosed Mus musculus (mouse) assessed as effect on heart measured post autopsy; format: organism-based; conditions: in vivo, po
Rattus norvegicus [10] = test: Antipyretic activity against yeast-induced hyperthermia in Rattus norvegicus (rat) assessed as change in body temperature at 1 mmol/kg after 6 hr; format: functional, organism-based
Rattus norvegicus [11] = test: Antipyretic activity against yeast-induced hyperthermia in Rattus norvegicus (rat) assessed as change in body temperature at 1 mmol/kg after 4 hr; format: functional, organism-based
Rattus norvegicus [12] = test: Antipyretic activity against yeast-induced hyperthermia in Rattus norvegicus (rat) assessed as change in body temperature at 1 mmol/kg after 2 hr; format: functional, organism-based
Rattus norvegicus [13] = test: Antipyretic activity against yeast-induced hyperthermia in Rattus norvegicus (rat) assessed as change in body temperature at 2 mmol/kg after 6 hr; format: functional, organism-based
Rattus norvegicus [14] = test: Antipyretic activity against yeast-induced hyperthermia in Rattus norvegicus (rat) assessed as change in body temperature at 2 mmol/kg after 4 hr; format: functional, organism-based
Rattus norvegicus [15] = test: Antipyretic activity against yeast-induced hyperthermia in Rattus norvegicus (rat) assessed as change in body temperature at 1.5 mmol/kg after 6 hr; format: functional, organism-based
Rattus norvegicus [16] = test: Antipyretic activity against yeast-induced hyperthermia in Rattus norvegicus (rat) assessed as change in body temperature at 2 mmol/kg after 2 hr; format: functional, organism-based
Rattus norvegicus [17] = test: Antipyretic activity against yeast-induced hyperthermia in Rattus norvegicus (rat) assessed as change in body temperature at 1.5 mmol/kg after 2 hr; format: functional, organism-based
Rattus norvegicus [18] = test: Antipyretic activity against yeast-induced hyperthermia in Rattus norvegicus (rat) assessed as change in body temperature at 1.5 mmol/kg after 4 hr; format: functional, organism-based
Mus musculus [19] = test: Analgesic activity in Mus musculus (mouse) assessed as pain threshold at 0.56 mmol/kg, ig after 180 min by hot plate test (reference value: 17.67 +/- 5.78 sec); format: functional
Mus musculus [20] = test: Analgesic activity in Mus musculus (mouse) assessed as pain threshold at 0.56 mmol/kg, ig after 120 min by hot plate test (reference value: 19.06 +/- 4.55 sec); format: functional
Mus musculus [21] = test: Analgesic activity in Mus musculus (mouse) assessed as pain threshold at 0.56 mmol/kg, ig after 60 min by hot plate test (reference value: 21.28 +/- 3 sec); format: functional
Mus musculus [22] = test: Analgesic activity in Mus musculus (mouse) assessed as pain threshold at 0.56 mmol/kg, ig after 30 min by hot plate test (reference value: 24.88 +/- 5.28 sec); format: functional
Mus musculus [23] = test: Analgesic activity in Mus musculus (mouse) assessed as pain threshold at 1.1 mmol/kg, ig after 120 min by hot plate test (reference value: 19.06 +/- 4.55 sec); format: functional
Mus musculus [24] = test: Analgesic activity in Mus musculus (mouse) assessed as pain threshold at 1.1 mmol/kg, ig after 180 min by hot plate test (reference value: 17.67 +/- 5.78 sec); format: functional
Mus musculus [25] = test: Analgesic activity in Mus musculus (mouse) assessed as pain threshold at 1.1 mmol/kg, ig after 60 min by hot plate test (reference value: 21.28 +/- 3 sec); format: functional
Mus musculus [26] = test: Analgesic activity in Mus musculus (mouse) assessed as pain threshold at 1.1 mmol/kg, ig after 30 min by hot plate test (reference value: 24.88 +/- 5.28 sec); format: functional
Mus musculus [27] = test: Anti-inflammatory activity against xylene-induced ear swelling Mus musculus (mouse) model as suppression of ear swelling at 0.56 mmol/kg, ig measured 1 hr after xylene challenge; format: functional; conditions: po
[28] = Toxicity in ig dosed Mus musculus (mouse); format: organism-based; conditions: in vivo, po
Mus musculus [29] = test: Anti-inflammatory activity against xylene-induced ear swelling Mus musculus (mouse) model as suppression of ear swelling at 1.11 mmol/kg, ig measured 1 hr after xylene challenge; format: functional; conditions: po

Question: For `C=CCc1ccc(OC(=O)c2ccccc2OC(C)=O)c(OC)c1` [ASPIRIN EUGENOL ESTER], which Activity (Mus musculus [1]) is on record?
Answer: The Activity was “Non-toxic”.

Question: And the Activity (Mus musculus [2])?
Answer: The Activity was “Non-toxic”.

Question: What about the Activity (Mus musculus [3]) of the same molecule?
Answer: Its Activity is “Non-toxic”.

Question: What about the Activity (Mus musculus [4]) of the same molecule?
Answer: Its Activity is “Non-toxic”.

Question: What about the Activity (Mus musculus [5]) of the same molecule?
Answer: The Activity was “Non-toxic”.

Question: And the Activity (Mus musculus [6])?
Answer: The Activity was “Non-toxic”.

Question: What about the Activity (Mus musculus [7]) of the same molecule?
Answer: Its Activity is “Non-toxic”.

Question: What about the Activity (Mus musculus [8]) of the same molecule?
Answer: Its Activity is “Toxic”.

Question: What about the Activity (Mus musculus [9]) of the same molecule?
Answer: The Activity was “Non-toxic”.

Question: And the deltaT (Rattus norvegicus [10])?
Answer: Its deltaT is -1.32 °C.

Question: What about the deltaT (Rattus norvegicus [11]) of the same molecule?
Answer: The deltaT was -1.29 °C.

Question: What about the deltaT (Rattus norvegicus [12]) of the same molecule?
Answer: The deltaT was -1.2 °C.

Question: What about the deltaT (Rattus norvegicus [13]) of the same molecule?
Answer: The deltaT was -2.49 °C.

Question: What about the deltaT (Rattus norvegicus [14]) of the same molecule?
Answer: Its deltaT is -2.46 °C.

Question: What about the deltaT (Rattus norvegicus [15]) of the same molecule?
Answer: The deltaT was -1.45 °C.

Question: What about the deltaT (Rattus norvegicus [16]) of the same molecule?
Answer: The deltaT was -2.09 °C.

Question: And the deltaT (Rattus norvegicus [17])?
Answer: Its deltaT is -1.14 °C.

Question: What about the deltaT (Rattus norvegicus [18]) of the same molecule?
Answer: Its deltaT is -1.4 °C.

Question: What about the Time (Mus musculus [19]) of the same molecule?
Answer: The Time was 29.13 s.

Question: And the Time (Mus musculus [20])?
Answer: The Time was 26.85 s.

Question: And the Time (Mus musculus [21])?
Answer: The Time was 28.81 s.

Question: What about the Time (Mus musculus [22]) of the same molecule?
Answer: The Time was 24.45 s.

Question: What about the Time (Mus musculus [23]) of the same molecule?
Answer: Its Time is 28.74 s.

Question: And the Time (Mus musculus [24])?
Answer: Its Time is 29.69 s.

Question: And the Time (Mus musculus [25])?
Answer: Its Time is 28.8 s.

Question: What about the Time (Mus musculus [26]) of the same molecule?
Answer: Its Time is 29.5 s.

Question: What about the inhibition in vivo at 560 µmol/kg (Mus musculus [27]) of the same molecule?
Answer: The inhibition in vivo at 560 µmol/kg was 44.8%.

Question: And the LD50 [28]?
Answer: Its LD50 is 10900 mg/kg.

Question: What about the inhibition in vivo at 1110 µmol/kg (Mus musculus [29]) of the same molecule?
Answer: Its inhibition in vivo at 1110 µmol/kg is 45.9%.

Question: For `C=CCc1ccc(O)c(OC)c1` [EUGENOL], which deltaT (Rattus norvegicus [15]) is on record?
Answer: The deltaT was -1.21 °C.

Question: And the deltaT (Rattus norvegicus [17])?
Answer: Its deltaT is -0.94 °C.

Question: What about the deltaT (Rattus norvegicus [18]) of the same molecule?
Answer: Its deltaT is -1.11 °C.

Question: What about the Time (Mus musculus [23]) of the same molecule?
Answer: The Time was 24.86 s.

Question: What about the Time (Mus musculus [24]) of the same molecule?
Answer: Its Time is 25.5 s.

Question: And the Time (Mus musculus [25])?
Answer: Its Time is 28.01 s.

Question: What about the Time (Mus musculus [26]) of the same molecule?
Answer: The Time was 30.76 s.

Question: What about the LD50 [28] of the same molecule?
Answer: Its LD50 is 3000 mg/kg.

Question: What about the inhibition in vivo at 1110 µmol/kg (Mus musculus [29]) of the same molecule?
Answer: Its inhibition in vivo at 1110 µmol/kg is 32.9%.

Question: What does the source list for `CC(=O)Oc1ccccc1C(=O)O` [ASPIRIN]?
Answer: deltaT (Rattus norvegicus [15]): -1.78 °C; deltaT (Rattus norvegicus [17]): -2.19 °C; deltaT (Rattus norvegicus [18]): -1.8 °C; LD50 [28]: 250 mg/kg; inhibition in vivo at 1110 µmol/kg (Mus musculus [29]): 45.2%

Reference: ChEMBL document CHEMBL3045235, “Synthesis of aspirin eugenol ester and its biological activity” (Med Chem Res, 2012)
